According to ChEMBL document CHEMBL5113476, “The protective effects of natural product tunicatachalcone against neuroinflammation via targeting RIPK2 in microglia BV-2 cells stimulated by LPS” (Bioorg Med Chem, 2022):
pKd: −log10 of the molar value. Active and inactive are the calls of the source. No cut-off for these calls is given here.

What was measured:
BV-2 [1] = test: Cytotoxicity against mouse BV-2 cells at 12.5 to 50 uM measured after 24 hrs by MTT assay; assay type: toxicity, cell-based; conditions: bv-2, 24 h, dose 12.5-50 µM
BV-2 [2] = test: Anti-neuroinflammatory activity in mouse BV-2 cells assessed as inhibition of LPS-induced NO production at 5 to 20 uM measured after 24 hrs; assay type: functional, cell-based; conditions: dose 5-20 µM, DDE = dose-dependent effect
BV-2 [3] = test: Anti-neuroinflammatory activity in mouse BV-2 cells assessed as reduction in LPS-stimulated IL-6 production at 5 to 20 uM measured after 8 hrs by ELISA; assay type: functional, cell-based; conditions: dose 5-20 µM, DDE = dose-dependent effect
BV-2 [4] = test: Anti-neuroinflammatory activity in mouse BV-2 cells assessed as reduction in LPS-stimulated TNF-alpha production at 5 to 20 uM measured after 4 hrs by ELISA; assay type: functional, cell-based; conditions: dose 5-20 µM, DDE = dose-dependent effect
[5] = molecular target: T1, Receptor-interacting serine/threonine-protein kinase 2 (Homo sapiens, UniProt O43353); test: Binding affinity to recombinant RIPK2 (unknown origin) measured by surface plasmon resonance analysis
[6] = molecular target: T1, Receptor-interacting serine/threonine-protein kinase 2; test: Binding affinity to recombinant RIPK2 (unknown origin) measured by microscale thermophoresis (MST) assay
[7] = molecular target: Receptor-interacting serine/threonine-protein kinase 2 (Mus musculus) (UniProt P58801); test: Binding affinity to RIPK2 in mouse BV-2 cells measured by Cellular thermal shift assay (CETSA); assay type: cell-based
Receptor-interacting serine/threonine-protein kinase 2 (Mus musculus), sequence (P58801 whole entry): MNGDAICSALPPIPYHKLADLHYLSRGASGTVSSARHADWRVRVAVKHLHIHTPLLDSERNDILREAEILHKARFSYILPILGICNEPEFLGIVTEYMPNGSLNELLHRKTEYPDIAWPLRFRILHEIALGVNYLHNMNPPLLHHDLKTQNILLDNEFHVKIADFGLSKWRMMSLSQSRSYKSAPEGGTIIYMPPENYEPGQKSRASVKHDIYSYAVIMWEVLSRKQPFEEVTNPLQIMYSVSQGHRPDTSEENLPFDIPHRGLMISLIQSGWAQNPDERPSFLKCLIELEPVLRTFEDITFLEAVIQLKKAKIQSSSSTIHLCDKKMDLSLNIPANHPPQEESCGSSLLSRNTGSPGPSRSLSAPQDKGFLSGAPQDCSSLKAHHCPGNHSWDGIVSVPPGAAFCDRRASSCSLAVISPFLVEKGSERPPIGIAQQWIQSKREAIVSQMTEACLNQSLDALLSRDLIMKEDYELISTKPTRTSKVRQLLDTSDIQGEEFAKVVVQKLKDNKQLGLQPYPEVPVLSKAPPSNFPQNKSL

T1 sequence (O43353 whole entry): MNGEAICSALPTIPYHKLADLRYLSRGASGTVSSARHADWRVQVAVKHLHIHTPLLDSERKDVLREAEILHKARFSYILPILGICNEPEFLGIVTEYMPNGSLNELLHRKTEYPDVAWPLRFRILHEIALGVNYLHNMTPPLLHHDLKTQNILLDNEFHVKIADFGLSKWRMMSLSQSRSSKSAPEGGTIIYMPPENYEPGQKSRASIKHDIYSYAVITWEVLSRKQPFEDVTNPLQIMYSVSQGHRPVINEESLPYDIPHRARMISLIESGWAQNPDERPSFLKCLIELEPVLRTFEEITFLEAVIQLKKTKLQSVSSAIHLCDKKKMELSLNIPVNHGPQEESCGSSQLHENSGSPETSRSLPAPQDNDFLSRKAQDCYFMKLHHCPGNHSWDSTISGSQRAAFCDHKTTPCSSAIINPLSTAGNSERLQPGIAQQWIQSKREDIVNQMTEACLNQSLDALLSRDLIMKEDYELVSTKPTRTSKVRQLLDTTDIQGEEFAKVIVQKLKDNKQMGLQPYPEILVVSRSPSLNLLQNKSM

pKd [5]: 5.27
pKd [6]: 6.00
Activity [7]: Active
SMILES: COC1=CC(=O)C(CC=C(C)C)(CC=C(C)C)C(=O)/C1=C(O)/C=C/c1ccccc1
Activity (BV-2 [1]): Non-Toxic
Activity (BV-2 [2]): Dde
Activity (BV-2 [3]): Dde
Activity (BV-2 [4]): Dde
